Results as given in PubChem BioAssay (NCI).
Values joined by “and” are separate entries in the source; they are usually repeats but may differ in a detail not shown here. Equal values may be shown once.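 The compound was tested at five concentrations on cells cultured in 96-well plates, with a 48-hour exposure period. At the GI50, growth is halved. TGI marks complete inhibition of growth.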

Key:
Experiment in all cases: DTP human tumour cell line panel, 48 h; in the data active = GI50 below about 0.43 µM; inactive = the rest
A549 NSCLC = system: A549 NSCLC
ACHN renal = system: ACHN renal
CCRF-CEM leukemia = system: CCRF-CEM leukemia
HCT-116 colon = system: HCT-116 colon
HT29 colon = system: HT29 colon
MOLT-4 leukemia = system: MOLT-4 leukemia
NCI-H23 lung = system: NCI-H23 lung
SNB-19 CNS = system: SNB-19 CNS
UACC-257 melanoma = system: UACC-257 melanoma
UACC-62 melanoma = system: UACC-62 melanoma

COc1ccc([N+](=O)[O-])c2c(NCC(O)CO)ccnc12 (stereo not drawn)
95.9 µM: TGI (UACC-257 melanoma)
> 100 µM: TGI (A549 NSCLC) | TGI (ACHN renal) | TGI (CCRF-CEM leukemia) | TGI (HCT-116 colon) | TGI (HT29 colon) | TGI (MOLT-4 leukemia) | TGI (SNB-19 CNS)
40.4 µM: TGI (NCI-H23 lung)
58.9 µM: TGI (UACC-62 melanoma)

O=C(O)c1nnsc1COCc1ccccc1
> 100 µM: TGI (A549 NSCLC) | TGI (ACHN renal) | TGI (CCRF-CEM leukemia) | TGI (HCT-116 colon) | TGI (HT29 colon) | TGI (MOLT-4 leukemia) | TGI (NCI-H23 lung) | TGI (SNB-19 CNS) | TGI (UACC-257 melanoma) | TGI (UACC-62 melanoma)

O=C1NC(=O)C(c2ccccc2Cl)=C1Nc1cccc(O)c1
inactive: GI50 (A549 NSCLC) 11.2 µM | GI50 (ACHN renal) > 25 µM | GI50 (CCRF-CEM leukemia) 7.05 µM | GI50 (HCT-116 colon) 7.51 µM | GI50 (HT29 colon) 2.79 µM | GI50 (MOLT-4 leukemia) > 25 µM | GI50 (NCI-H23 lung) 10.5 µM | GI50 (SNB-19 CNS) 21.4 µM | GI50 (UACC-257 melanoma) > 25 µM | GI50 (UACC-62 melanoma) 2.25 µM
> 25 µM: TGI (A549 NSCLC) | TGI (ACHN renal) | TGI (CCRF-CEM leukemia) | TGI (HCT-116 colon) | TGI (HT29 colon) | TGI (MOLT-4 leukemia) | TGI (NCI-H23 lung) | TGI (SNB-19 CNS) | TGI (UACC-257 melanoma) | TGI (UACC-62 melanoma)

O=C(N=Nc1c(O)[nH]c2ccccc12)c1ccccc1O
> 100 µM: TGI (A549 NSCLC) | TGI (ACHN renal) | TGI (CCRF-CEM leukemia) | TGI (HCT-116 colon) | TGI (HT29 colon) | TGI (MOLT-4 leukemia) | TGI (SNB-19 CNS) | TGI (UACC-257 melanoma) | TGI (UACC-62 melanoma)
92 µM: TGI (NCI-H23 lung)

O=c1oc2c3ccc4ccccc4c3n(Cc3nc4ccccc4[nH]3)c2c2ccccc12
> 90.6 µM: TGI (UACC-257 melanoma)
> 100 µM: TGI (A549 NSCLC) | TGI (ACHN renal) | TGI (CCRF-CEM leukemia) | TGI (HCT-116 colon) | TGI (MOLT-4 leukemia) | TGI (NCI-H23 lung) | TGI (SNB-19 CNS) | TGI (UACC-62 melanoma)
> 63.4 µM: TGI (HT29 colon)

Cc1ccc(S(=O)(=O)NCCN2c3nc4ccccc4cc3Sc3cc4ccccc4nc32)cc1
> 100 µM: TGI (A549 NSCLC) | TGI (ACHN renal) | TGI (CCRF-CEM leukemia) | TGI (HCT-116 colon) | TGI (HT29 colon) | TGI (MOLT-4 leukemia) | TGI (NCI-H23 lung) | TGI (UACC-257 melanoma)
51.4 µM: TGI (UACC-62 melanoma)
67.7 µM: TGI (SNB-19 CNS)
inactive: GI50 (A549 NSCLC) > 100 µM | GI50 (ACHN renal) 8.42 µM | GI50 (CCRF-CEM leukemia) > 100 µM | GI50 (HCT-116 colon) 7.11 µM | GI50 (HT29 colon) > 100 µM | GI50 (MOLT-4 leukemia) > 100 µM | GI50 (NCI-H23 lung) 13 µM | GI50 (SNB-19 CNS) 10.5 µM | GI50 (UACC-257 melanoma) > 100 µM | GI50 (UACC-62 melanoma) 11.4 µM

O=[N+]([O-])/C=C\c1ccc2c(c1)OCO2
7.38 µM: TGI (NCI-H23 lung)
3.77 µM: TGI (UACC-257 melanoma)
5.23 µM: TGI (A549 NSCLC)
4.89 µM: TGI (HT29 colon)
2.95 µM: TGI (HCT-116 colon)
30.8 µM: TGI (SNB-19 CNS)
inactive: GI50 (A549 NSCLC) 2.34 µM | GI50 (ACHN renal) 4.21 µM | GI50 (CCRF-CEM leukemia) 3.9 µM | GI50 (HCT-116 colon) 1.42 µM | GI50 (HT29 colon) 2.07 µM | GI50 (MOLT-4 leukemia) 17.6 µM | GI50 (NCI-H23 lung) 2.52 µM | GI50 (SNB-19 CNS) 13.1 µM | GI50 (UACC-257 melanoma) 1.64 µM | GI50 (UACC-62 melanoma) 15.3 µM
31.8 µM: TGI (UACC-62 melanoma)
25 µM: TGI (CCRF-CEM leukemia)
67.7 µM: TGI (MOLT-4 leukemia)
16.2 µM: TGI (ACHN renal)

CC1(C)C(=O)/C(=C\c2ccco2)C[C@]2(C)[C@H]3CC=C4[C@@H]5C[C@](C)(C(=O)O)CC[C@]5(C)CC[C@@]4(C)[C@]3(C)CC[C@@H]12
21.7 µM: TGI (A549 NSCLC)
26.1 µM: TGI (HCT-116 colon)
21.1 µM: TGI (ACHN renal)
20.3 µM: TGI (UACC-62 melanoma)
22.7 µM: TGI (SNB-19 CNS)
25.4 µM: TGI (NCI-H23 lung)
inactive: GI50 (A549 NSCLC) 4.21 µM | GI50 (ACHN renal) 6.9 µM | GI50 (CCRF-CEM leukemia) 5.9 µM | GI50 (HCT-116 colon) 7.27 µM | GI50 (HT29 colon) 11.7 µM | GI50 (MOLT-4 leukemia) 4.37 µM | GI50 (NCI-H23 lung) 8.89 µM | GI50 (SNB-19 CNS) 10.2 µM | GI50 (UACC-257 melanoma) 12.5 µM | GI50 (UACC-62 melanoma) 6.49 µM
26.7 µM: TGI (MOLT-4 leukemia)
28.6 µM: TGI (HT29 colon)
32.6 µM: TGI (CCRF-CEM leukemia)
38.9 µM: TGI (UACC-257 melanoma)

O=C(O)C(Cc1ccc(O)c([N+](=O)[O-])c1)N1C(=O)c2ccccc2C1=O (stereo not drawn)
> 100 µM: TGI (A549 NSCLC) | TGI (ACHN renal) | TGI (CCRF-CEM leukemia) | TGI (HCT-116 colon) | TGI (HT29 colon) | TGI (MOLT-4 leukemia) | TGI (NCI-H23 lung) | TGI (SNB-19 CNS) | TGI (UACC-257 melanoma) | TGI (UACC-62 melanoma)

O=C(N/N=C/c1ccc(F)cc1)c1[nH]c2ccc(I)cc2c1-c1ccccc1
active: GI50 (CCRF-CEM leukemia) 0.383 µM | GI50 (HCT-116 colon) 0.325 µM | GI50 (HT29 colon) 0.35 µM | GI50 (UACC-62 melanoma) 0.324 µM
> 36.9 µM: TGI (MOLT-4 leukemia)
inactive: GI50 (A549 NSCLC) 0.76 µM | GI50 (ACHN renal) 0.719 µM | GI50 (MOLT-4 leukemia) 1.24 µM | GI50 (NCI-H23 lung) 0.551 µM | GI50 (SNB-19 CNS) 2.31 µM | GI50 (UACC-257 melanoma) 3.73 µM
> 82.1 µM: TGI (SNB-19 CNS)
1.35 µM: TGI (HCT-116 colon)
> 54.5 µM: TGI (A549 NSCLC)
> 25.1 µM: TGI (NCI-H23 lung)
10 µM: TGI (HT29 colon)
> 100 µM: TGI (ACHN renal) | TGI (UACC-62 melanoma)
> 96.6 µM: TGI (UACC-257 melanoma)

Cc1ccc2c(c1)sc(-c1ccc(N(C)C)cc1)[n+]2C
inactive: GI50 (A549 NSCLC) 0.741 µM | GI50 (ACHN renal) 5.89 µM | GI50 (CCRF-CEM leukemia) 1.98 µM | GI50 (HCT-116 colon) 0.502 µM | GI50 (HT29 colon) 0.854 µM | GI50 (MOLT-4 leukemia) 1.93 µM | GI50 (NCI-H23 lung) 0.987 µM | GI50 (SNB-19 CNS) 1.95 µM | GI50 (UACC-257 melanoma) 0.657 µM | GI50 (UACC-62 melanoma) 2.07 µM
> 62.5 µM: TGI (CCRF-CEM leukemia)
> 48.7 µM: TGI (MOLT-4 leukemia)
> 37.9 µM: TGI (HT29 colon)
> 100 µM: TGI (ACHN renal)
> 34.6 µM: TGI (HCT-116 colon)
21 µM: TGI (SNB-19 CNS)
> 48.8 µM: TGI (NCI-H23 lung)
19.9 µM: TGI (UACC-257 melanoma)
15.5 µM: TGI (UACC-62 melanoma)

O=C(Nc1ccc(Br)cc1)c1cc(Br)cc(Br)c1O
> 100 µM: TGI (CCRF-CEM leukemia) | TGI (MOLT-4 leukemia) | TGI (SNB-19 CNS)
15 µM: TGI (UACC-62 melanoma)
6.8 µM: TGI (NCI-H23 lung)
6.66 µM: TGI (ACHN renal)
inactive: GI50 (A549 NSCLC) 2.65 µM | GI50 (ACHN renal) 2.31 µM | GI50 (CCRF-CEM leukemia) 3.73 µM | GI50 (HCT-116 colon) 2.41 µM | GI50 (HT29 colon) 4.02 µM | GI50 (MOLT-4 leukemia) 3.83 µM | GI50 (NCI-H23 lung) 2.18 µM | GI50 (SNB-19 CNS) 3.55 µM | GI50 (UACC-257 melanoma) 2.08 µM | GI50 (UACC-62 melanoma) 2.56 µM
7.9 µM: TGI (A549 NSCLC)
5.41 µM: TGI (UACC-257 melanoma)
8.31 µM: TGI (HCT-116 colon)
22.7 µM: TGI (HT29 colon)

Cn1cnc([N+](=O)[O-])c1Sc1ncnc2nc[nH]c12
inactive: GI50 (A549 NSCLC) 40 µM and > 67.3 µM | GI50 (ACHN renal) 38.1 µM and 41.7 µM | GI50 (CCRF-CEM leukemia) 3.64 µM and 5.1 µM | GI50 (HCT-116 colon) 3.62 µM and 23.4 µM | GI50 (HT29 colon) 7.17 µM and 22.6 µM | GI50 (MOLT-4 leukemia) 8.77 µM and 6.68 µM | GI50 (NCI-H23 lung) 4.01 µM and 13.3 µM | GI50 (SNB-19 CNS) 61.4 µM and 84.4 µM | GI50 (UACC-257 melanoma) 7.86 µM and 8.71 µM | GI50 (UACC-62 melanoma) 2.54 µM and 3.4 µM
> 100 µM: TGI (A549 NSCLC) | TGI (ACHN renal) | TGI (CCRF-CEM leukemia) | TGI (HCT-116 colon) | TGI (HT29 colon) | TGI (MOLT-4 leukemia) | TGI (NCI-H23 lung) | TGI (SNB-19 CNS) | TGI (UACC-257 melanoma) | TGI (UACC-62 melanoma)

CCCCS(=N)(=O)CC[C@H](N)C(=O)O (stereo partly drawn)
inactive: GI50 (A549 NSCLC) > 8030 µM | GI50 (ACHN renal) > 10000 µM | GI50 (CCRF-CEM leukemia) 302 µM | GI50 (HCT-116 colon) > 9060 µM | GI50 (HT29 colon) > 10000 µM | GI50 (MOLT-4 leukemia) 1540 µM | GI50 (NCI-H23 lung) > 10000 µM | GI50 (SNB-19 CNS) > 10000 µM | GI50 (UACC-257 melanoma) > 10000 µM | GI50 (UACC-62 melanoma) > 8090 µM
> 10000 µM: TGI (A549 NSCLC) | TGI (ACHN renal) | TGI (HCT-116 colon) | TGI (HT29 colon) | TGI (SNB-19 CNS) | TGI (UACC-257 melanoma) | TGI (UACC-62 melanoma)
2790 µM and 2140 µM: TGI (CCRF-CEM leukemia)
3810 µM and > 10000 µM: TGI (MOLT-4 leukemia)
5000 µM and > 10000 µM: TGI (NCI-H23 lung)
